What was measured:
in vivo = settings: plasma
[1] = tested on: repeated corticosterone-injected rats; settings: CORT administration model; cited from earlier work

| Compound | half-life (in vivo) [h] | depressive-like behavior [1] |
| --- | --- | --- |
| CC(C)[C@H](NC(=O)[C@@H]1CCC(=O)NCCC(=O)NCCCC[C@H](NC(=O)[C@H](CCCCN)NC(=O)[C@H](Cc2ccc(O)cc2)NC(=O)[C@H](CC(N)=O)NC(=O)[C@H](CCCCN)NC(=O)[C@@H](N)CSSC[C@@H](N)C(=O)N[C@@H](CCCNC(=N)N)C(=O)N[C@@H](CCCNC(=N)N)C(=O)N[C@@H](CCCNC(=N)N)C(=O)N[C@@H](CCCNC(=N)N)C(=O)N[C@@H](CCCNC(=N)N)C(=O)N[C@@H](CCCNC(=N)N)C(=O)N[C@@H](CCCNC(=N)N)C(N)=O)C(=O)N[C@@H]([C@@H](C)O)C(=O)N1)C(=O)O [CN2097, R7Cs-sCYK[KTE(β-Ala)]V] | ~1 | – |
| CNC1(c2ccccc2Cl)CCCCC1=O (centres unmarked) [ketamine] | – | significantly reduced depressive-like behavior |
